From patent US7208496B2, “Substituted heterocyclic compounds” (CV Therapeutics, Inc., priority 2003, dated 2007) come the findings set out here.

This assay relates to Palmitoyl CoA oxidation in rat heart mitochondria. In words: Palmitoyl CoA oxidation assay (mitochondrial assay, Example 16). The class given is biochemical. Conditions: 16 microM 1-C14 palmitoyl CoA, 15 min at 30° C., read-out: IC value, Palmitoyl CoA oxidation. As to the method: Rat heart mitochondria are isolated by the method of Nedergard and Cannon (Methods in Enzymol. 55, 3, 1979).
Palmitoyl CoA oxidation—The Palmityl CoA oxidation is carried out in a total volume of 100 micro liters containing the following agents: 110 mM KCl, 33 mM Tris buffer at pH 8, 2 mM KPi, 2 mM MgCl2, 0.1 mM EDTA, 14.7 microM defatted BSA, 0.5 mM malic acid, 13 mM carnitine, 1 mM ADP, 52 micrograms of mitochondrial protein, and 16 microM 1-C14 palmitoyl CoA (Sp. Activity 60 mCi/mmole; 20 microCi/ml, using 5 microliters per assay). The compounds of this invention are added in a DMSO solution at the following concentrations: 100 micro molar, 30 micro molar, and 3 micro molar. In each assay, a DMSO control is used. After 15 min at 30° C., the enzymatic reaction is centrifuged (20,000 g for 1 min), and 70 microliters of the supernatant is added to an activated reverse phase silicic acid column (approximately 0.5 ml of silicic acid). The column is eluted with 2 ml of water, and 0.5 ml of the eluent is used for scintillation counting to determine the amount of C^14 trapped as C^14 bicarbonate ion.

For the substance “{(3S)-4-[(2R)-2-hydroxy-3-(2-methylbenzothiazol-5-yloxy)propyl]-3-methylpiperazinyl}-N-(9-ethylcarbazol-3-yl)carboxamide”, the IC50 was 2600 nM.
